Experimental data reported in patent US20070142635A1, “Process for preparing hexahydropyrimido[1,2-a]azepine-2-carboxylates and related compounds” (priority 2003, published 2007).

Target: HIV integrase (Human immunodeficiency virus type 1 group M subtype B, UniProt P04585)
Experiment: assay described in WO 02/30930 for inhibition of strand transfer in HIV integrase
Assay type: biochemical
Description: As is clear from the foregoing description, compounds embraced by Formula X or XI and precursors thereof are useful as intermediates in the preparation of Compounds XII, XIII and XIV, which are HIV integrase inhibitors useful, inter alia, in treating HIV infection.

Structure (SMILES): CN(C)C(=O)C(=O)N(C)C1CCCCn2c1nc(C(=O)NCc1ccc(F)cc1)c(O)c2=O (racemic) [Compound 14, N-(2-{[(4-fluorobenzyl)amino]carbonyl}-3-hydroxY4-oxo-4,6,7,8,9,10-hexahydropyrnidor[1,2-α]azepin-10-yl)-N,N′,N′-trimethylethanediamide]
- inhibition of strand transfer in HIV integrase: exhibited activity
